Reference: US6482429B1, “Stable powder inhalation dosage formulation” (Boehringer Ingelheim Pharmaceuticals, Inc., priority 2001, dated 2002)

Assays:
[1] = Particle size distribution measured using the Aerosizer with Pulse Jet Disperser; format: physicochemical; settings: average of three measurements
Description: The Pulse Jet Disperser device (Amherst Processing Instruments) was used for powder dispersion. Three measurements were made for each sample and the results were averaged.

[2] = Relative sintering rates under high relative humidity; format: physicochemical; settings: about 23° C., about one day of exposure, compared with lactose
Method: Two experiments were carried out, one at about 85% relative humidity and another at about 95% relative humidity. The experiments ran over several days, but the largest increment occurs fairly early. Both experiments were carried out at room temperature (about 23° C.). […] Sintering of cellobiose is slower. […].

| SMILES | Mean Particle Size [1] [μm] | Relative sintering rate (difference in number fraction Δf versus particle diameter) ([2]; approximately 85% relative humidity) | Relative sintering rate (difference in number fraction Δf versus particle diameter) ([2]; approximately 93% relative humidity) |
| --- | --- | --- | --- |
| O=C[C@H](O)[C@@H](O)[C@H](O[C@@H]1O[C@H](CO)[C@@H](O)[C@H](O)[C@H]1O)[C@H](O)CO [Cellobiose, cellobiose] | 2.032 | slower | slower |
| O.OC[C@H]1O[C@@H](O[C@H]2[C@H](O)[C@@H](O)C(O)O[C@@H]2CO)[C@H](O)[C@@H](O)[C@H]1O (stereo partly shown) [Lactose, lactose monohydrate, reference compound] | 2.044 |  |  |
